Test results: US10081646B2, “Heterobicyclic sphingosine 1-phosphate analogs” (BIOGEN MA INC., priority 2008, dated 2018)

Each compound was assayed against T1, human S1P3 receptor (Homo sapiens, UniProt Q99500) (assay: Calcium mobilization assay, recombinant CHEM cells expressing human S1P3). Conditions: FLIPR.
T1 construct: host or cells: recombinant CHEM cells
Type: cell-based
Method: Compounds that were not specific for the S1P1 receptor, can have activity for other S1P receptor subtypes, e.g., S1P2, S1P3, S1P4, or S1P5, and can cause undesirable side effects. Accordingly, compounds were tested to identify those that were specific for S1P1 activity and had little or no activity, or are antagonists of, S1P3 activity. Accordingly, the test compounds were tested in a calcium mobilization assay to determine agonist activity at either the human S1P1 or human S1P3 receptor, and antagonist activity only at the human S1P3 receptor. The procedure was essentially as described (with modifications described below) in Davis et al. (2005) Journal of Biological Chemistry, vol. 280, pp. 9833-9841, which is incorporated by reference in its entirety. Calcium mobilization assays were performed in recombinant CHEM cells expressing human S1P1 or S1P3 purchased from Millipore (Billerica, Mass.). To detect free intracellular calcium, S1P1 or S1P3 cells were loaded with FLIPR Calcium 4 dye from Molecular Devices (Sunnyvale, Calif.). Cells were imagined for calcium mobilization using a FLIPR^TETRA equipped with a 96-well dispense head.

T1 sequence (Q99500 whole entry): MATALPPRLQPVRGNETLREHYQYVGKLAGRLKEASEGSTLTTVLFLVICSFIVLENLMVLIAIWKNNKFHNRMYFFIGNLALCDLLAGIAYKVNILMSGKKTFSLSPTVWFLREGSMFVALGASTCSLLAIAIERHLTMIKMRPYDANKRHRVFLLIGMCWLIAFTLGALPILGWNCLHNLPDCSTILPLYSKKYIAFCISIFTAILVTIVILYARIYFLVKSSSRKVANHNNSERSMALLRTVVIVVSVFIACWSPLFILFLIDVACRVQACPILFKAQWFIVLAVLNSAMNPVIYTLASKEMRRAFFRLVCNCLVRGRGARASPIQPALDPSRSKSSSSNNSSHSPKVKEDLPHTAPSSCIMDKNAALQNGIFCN

Row | S1P3 agonist activity | SMILES
1 | full S1P3 agonist | CCCCCCCCCCCCC/C=C/[C@@H](O)[C@@H](N)COP(=O)(O)O [Example S1P, Sphingosine 1-phosphate]

These compounds were tested on circulating lymphocytes (assay: Lymphopenia assay: measurement of circulating lymphocytes after oral gavage). Conditions: Mus musculus, Lymphocyte, po, mice, oral gavage 0.5 and 5 mg/kg in 30% HPCD, blood 5 and 24 hours after administration; read-out: Lymphopenia (ED50 mg/kg).
Type: in vivo, Mice (C57bl/6 male)
Method: Measurement of circulating lymphocytes: Compounds were dissolved in 30% HPCD. Mice (C57bl/6 male, 6-10 week-old) were administered 0.5 and 5 mg/kg of a compound via oral gavage. 30% HPCD was included as a negative control.
Blood was collected from the retro-orbital sinus 5 and 24 hours after drug administration under short isoflurane anesthesia. Whole blood samples were subjected to hematology analysis. Peripheral lymphocyte counts were determined using an automated analyzer (HEMAVET™ 3700). Three mice were used to assess the lymphocyte depletion activity of each compound screened.

Row | SMILES | ED50 [mg/kg]
2 | CC(N)(CO)c1ccc2nc(O[C@H]3CC[C@H](C(C)(C)C)CC3)ccc2c1 (relative stereo) [Example 78, 2-amino-2-(2-(trans-4-tert-butylcyclohexyloxy)quinolin-6-yl)propan-1-ol] | > 5
3 | CC(C)(C)[C@H]1CC[C@H](Oc2ccc3cc([C@](C)(N)CO)ccc3n2)CC1 (single isomer, unassigned) [Example 79A] | > 5
4 | CC(C)(C)[C@H]1CC[C@H](Oc2ccc3cc([C@@](C)(N)CO)ccc3n2)CC1 (single isomer, unassigned) [Example 79] | > 5
5 | CCCCCCCOc1ccc2nc(C(C)(N)CO)ccc2c1 (stereo not shown) [Example 38, 2-amino-2-(6-(heptyloxy)quinolin-2-yl)propan-1-ol] | 0.5 to 5
6 | CCCCCCCOc1ccc2nc([C@@](C)(N)CO)ncc2c1 [Example 50, (R)-2-Amino-2-(6-heptyloxyquinazolin-2-yl)propan-1-ol] | 0.5 to 5
7 | CC(C)(C)[C@H]1CC[C@H](Oc2ccc3nc([C@@](C)(N)CO)ncc3c2C(F)(F)F)CC1 [Example 61, (R)-2-Amino-2-(6-(trans-4-tert-butylcyclohexyloxy)-5-(trifluoromethyl)quinazolin-2-yl)propan-1-ol] | 0.5 to 5
8 | CC(C)(C)[C@H]1CC[C@H](Oc2ccc3c(c2C(F)(F)F)CC[C@H]([C@@](C)(N)CO)C3)CC1 [Example 71, (R)-2-amino-2-((S)-6-(trans-4-tert-butylcyclohexyloxy)-5-(trifluoromethyl)-1,2,3,4-tetrahydronaphthalen-2-yl)propan-1-ol] | < 0.5
9 | CC(C)(C)[C@H]1CC[C@H](Oc2cc3c(cc2C(F)(F)F)C[C@@H]([C@@](C)(N)CO)CC3)CC1 [Example 71A, (R)-2-amino-2-((S)-6-(trans-4-tert-butylcyclohexyloxy)-7-(trifluoromethyl)-1,2,3,4-tetrahydronaphthalen-2-yl)propan-1-ol] | > 5
10 | CCCCCCCOc1ccc2cc(C(C)(N)CO)cnc2c1 (stereo not shown) [Example 91, 2-amino-2-(7-(heptyloxy)quinolin-3-yl)propan-1-ol] | 0.5 to 5
11 | CCCCCCCCc1ccc2nc(C(C)(N)CO)sc2c1 (stereo not shown) [Example 99, 2-amino-2-(6-octylbenzo[d]thiazol-2-yl)propan-1-ol] | > 5
12 | CCCCCCCOc1ccc2cc(C(C)(N)CO)ccc2n1 (stereo not shown) [Example 103, 2-amino-2-(2-(heptyloxy)quinolin-6-yl)propan-1-ol] | 0.5 to 5
13 | NC(CO)(CO)C1CCc2cc(Sc3cccc(OCc4ccccc4)c3)ccc2C1 (stereo not shown) [Example 113, 2-Amino-2-(6-(3-(benzyloxy)phenylthio)-1,2,3,4-tetrahydronaphthalen-2-yl)propane-1,3-diol] | < 0.5

Same assay, conditions: Mus musculus, Lymphocyte, po, read-out: Lymphopenia (ED50 mg/kg)

Row | SMILES | ED50 [mg/kg]
14 | CC(N)(CO)c1ccc2c(C(F)(F)F)c(O[C@H]3CC[C@H](C(C)(C)C)CC3)ccc2n1 (relative stereo) [Example 21, 2-Amino-2-[6-(trans-4-tert-butyl-cyclohexyloxy)-5-trifluoromethyl-quinolin-2-yl]-propan-1-ol] | < 0.5

Same assay, conditions: mice, oral gavage 0.5 and 5 mg/kg in 30% HPCD, blood 5 and 24 hours after administration

Row | SMILES | Lymphopenia (ED50 mg/kg) [mg/kg]
15 | CC(N)(CO)c1ccc2cc(O[C@H]3CC[C@H](C(C)(C)C)CC3)ccc2n1 (relative stereo) [Example 18, 2-Amino-2-[6-(trans-4-tert-butyl-cyclohexyloxy)-quinolin-2-yl]-propan-1-ol] | 0.5 to 5
16 | CC(N)(CO)c1ccc2cc(O[C@H]3CC[C@H](C(C)(C)C)CC3)ccc2n1 (relative stereo) [Example 23, 2-Amino-2-[6-(trans-4-tert-butyl-cyclohexyloxy)-quinolin-2-yl]-propan-1-ol] | <0.5
17 | CC(N)(CO)c1ccc2cc(O[C@H]3CC[C@H](C(C)(C)C)CC3)ccc2n1 (relative stereo) [Example 24, 2-Amino-2-[6-(trans-4-tert-butyl-cyclohexyloxy)-quinolin-2-yl]-propan-1-ol] | >5
18 | CC(N)(CO)c1ccc2c(C(F)(F)F)c(O[C@H]3CC[C@H](C(C)(C)C)CC3)ccc2n1 (relative stereo) [Example 26, 2-Amino-2-[6-(trans-4-tert-butyl-cyclohexyloxy)-5-trifluoromethyl-quinolin-2-yl]-propan-1-ol] | <0.5
19 | CC(N)(CO)c1ccc2c(C(F)(F)F)c(O[C@H]3CC[C@H](C(C)(C)C)CC3)ccc2n1 (relative stereo) [Example 27, 2-Amino-2-[6-(trans-4-tert-butyl-cyclohexyloxy)-5-trifluoromethyl-quinolin-2-yl]-propan-1-ol] | >5
